Where two headings read alike, the source gives them in different places.

From patent US5714501A, “Piperidine derivatives” (priority 1995, dated 1998) come the findings set out here.

For test [1], the target named is T1, leukotriene D4 receptors (Cavia porcellus, UniProt Q2NNR5).
T1 sequence (Q2NNR5 1-340): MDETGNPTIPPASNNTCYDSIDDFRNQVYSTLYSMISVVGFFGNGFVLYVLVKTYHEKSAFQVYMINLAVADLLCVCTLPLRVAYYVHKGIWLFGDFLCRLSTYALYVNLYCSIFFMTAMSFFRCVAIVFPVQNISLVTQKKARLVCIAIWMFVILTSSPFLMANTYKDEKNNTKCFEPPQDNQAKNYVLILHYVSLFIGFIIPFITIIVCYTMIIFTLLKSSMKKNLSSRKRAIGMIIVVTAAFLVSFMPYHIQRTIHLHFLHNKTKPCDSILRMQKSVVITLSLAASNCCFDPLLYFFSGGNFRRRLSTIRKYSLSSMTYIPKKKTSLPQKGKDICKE
In words: Inhibition of [3H]LTD4 binding to guinea-pig lung membranes (and saturation experiment). Also on record: guinea-pig lung membrane proteins; from tissue; host or cells: guinea-pig lung membranes. The procedure:
The method is a modification of that described in the literature*. […] The piperazine-N,N'-bis(2-ethanesulfonic)acid buffer contains 10 mM CaCl2, 10 mM MgCl2, 50 mM NaCl, 2 mM cysteine and 2 mM glycine. The reaction was terminated by the addition of 5 ml ice-cold tris-HCl/NaClbuffer (10 mM/, pH 7.5). The mixture was immediately filtered under vacuum (Whatman GF/C filters) and the filters was washed once with 20 ml ice-cold buffer. The retained radioactivity was determined by a liquid scintillation counter.
In the saturation experiment, 2 μM LTD4 was used to define the non-specific binding.

For test [2], the target named is T2, histamine H1 receptors (Cavia porcellus, UniProt P31389).
T2 construct: guinea-pig cerebellum membrane proteins; from tissue; host or cells: guinea-pig cerebellum membranes
T2 sequence (P31389 whole entry): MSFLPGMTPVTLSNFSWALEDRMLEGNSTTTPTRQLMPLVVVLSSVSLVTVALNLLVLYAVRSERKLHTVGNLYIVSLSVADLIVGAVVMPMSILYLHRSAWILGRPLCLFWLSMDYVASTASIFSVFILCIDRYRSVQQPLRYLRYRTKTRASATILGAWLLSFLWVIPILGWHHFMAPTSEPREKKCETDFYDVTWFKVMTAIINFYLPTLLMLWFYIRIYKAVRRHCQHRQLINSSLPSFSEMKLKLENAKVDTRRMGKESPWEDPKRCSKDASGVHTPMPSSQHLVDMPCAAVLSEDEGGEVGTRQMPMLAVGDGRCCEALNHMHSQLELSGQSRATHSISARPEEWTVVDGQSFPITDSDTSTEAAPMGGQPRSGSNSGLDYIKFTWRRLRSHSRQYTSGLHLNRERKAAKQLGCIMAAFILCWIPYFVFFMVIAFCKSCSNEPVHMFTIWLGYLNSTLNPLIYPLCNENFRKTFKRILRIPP
As to the kind of experiment: Inhibition of histamine-induced contraction of isolated guinea-pig ileum. The note with it: 30 min incubation with compound, 37° C.; for Kb: read-out: activity on histamine H1 receptors, pA2 (functional) (converted). As for the experimental part:
(§1) (1) Inhibition of histamine-or LTD4 -induced contraction
(§2) The first three dose-response experiments are performed by adding histamine or leukotriene D4 cumulatively to the organ bath. After adequate washing, the ileal strip is incubated with the testing compound for 30 min. The dose-response experiment is then conducted again. The dissociation constant (Kb) of the receptor-antagonist complex is used as the parameter to indicate the potency of the testing compound and is calculated according to the Cheng-Prusoff equation.

Test [3] concerns the target T2, histamine H1 receptors. In words: Inhibition of [3H]mepyramine binding to guinea-pig cerebellum membranes (and saturation experiment). The conditions noted are these: 0.5 nM [3H]mepyramine, pH 7.5, 37° C., 30 min. As for the experimental part:
The method is based on that described previously. […] The reaction was stopped by the addition of 5 ml ice-cold phosphate buffer and followed by immediate filtration through Whatman GF/C filters. The filters were washed twice with about 20 ml cold buffer. The retained radioactivity was determined by a liquid scintillation counter after addition of 5 ml scintillation liquid.
In the saturation experiment, 10^-4 MR(-)dimethindene was used to define the non-specific binding.

The target of test [4] is T1, leukotriene D4 receptors. As to the kind of experiment: Inhibition of LTD4-induced contraction of isolated guinea-pig ileum. Also on record: A piece of ileum (about 2 cm length) isolated from guinea-pigs; from tissue; host or cells: guinea-pig ileum. As for the experimental part:
as §1, §2

[5] abbreviates: 0.2 nM [3H]-LTD4, guinea-pig lung membranes, pH 7.5, 22° C., 30 min.
The mark [6] stands for this setting: guinea-pig ileum, LTD4-induced contraction, 30 min incubation with compound, 37° C., read-out: activity on leukotriene D4 receptors, pA2 (functional) (converted).

In the case of `O=C(N[C@@H](CN1CCC(=C2c3ccccc3C=Cc3ccccc32)CC1)C(=O)O)OCc1ccccc1` [Example 6, (S)-2-Benzyloxycarbonylamino-3-[4-(5H-dibenzo[a,d]cyclohepten-5-ylidene)piperidin-1-yl]propionic acid], at 10 µM the inhibition at leukotriene D4 receptors [1] (drug at the concentration of 10^-5 M, guinea-pig receptor preparations) was 28%. The Kb on histamine H1 receptors [2] was 42.7 nM. On histamine H1 receptors [3], this compound registered a dissociation constant (Kd) of 147 nM.
Consider `O=C(N[C@@H](CN1CCC(=C2c3ccccc3CCc3ccccc32)CC1)C(=O)O)OCc1ccccc1` [Example 7, (S)-2-Benzyloxycarbonylamino-3-[4-(10,11-dihydro-5H-dibenzo[a,d]cyclohepten-5-ylidene)-piperidin-l-yl]propionic acid], for which the dissociation constant Kd at leukotriene D4 receptors [1] (setting [5]) is 6800 nM; on histamine H1 receptors [3], 871 nM. Also, the figures for the Kb at leukotriene D4 receptors [4] (setting [6]) and at histamine H1 receptors [2] were 1120 nM and 33.1 nM, respectively.
For `O=C(N[C@H](CN1CCC(=C2c3ccccc3CCc3ccccc32)CC1)C(=O)O)OCc1ccccc1` [Example 8, (R)-2-Benzyloxycarbonylamino-3-[4-(10,11-dihydro-5H-dibenzo[a,d]-cyclohepten-5-ylidene)piperidin-1-yl]propionic acid] the same measures were 1550 nM, 412 nM, 141 nM and 10 nM.
On to `CCCc1c(OCC(O)COc2ccc3c(=O)cc(C(=O)O)oc3c2CCC)ccc(C(C)=O)c1O` (stereo not shown) [FPL55712, reference compound], for which the Kb at leukotriene D4 receptors [4] is 120 nM. The “activity on histamine H1 receptors, pA2 (functional)” value on histamine H1 receptors [2] is listed as “not active”. Also, on histamine H1 receptors [3], the “activity on histamine H1 receptors, KD (binding)” value is “not active”.
As for `CC(C)(C)c1ccc(C(O)CCCN2CCC(C(O)(c3ccccc3)c3ccccc3)CC2)cc1` (stereo not shown) [terfenadine, reference compound], on leukotriene D4 receptors [1] (setting [5]), the “activity on leukotriene D4 receptors, KD (binding)” value was “not active”. Also, the “activity on leukotriene D4 receptors, pA2 (functional)” value at leukotriene D4 receptors [4] (guinea-pig ileum, LTD4-induced contraction, 30 min incubation with compound, 37° C.) was “not active”.
